For twelve compounds, IC50 results are on record in US11339130B1 (Blade Therapeutics, Inc., priority 2016, dated 2022).

In one test the target is T1, Human Calpain 9/NS1 (Homo sapiens, UniProt O14815).
T1 sequence (O14815 1-690): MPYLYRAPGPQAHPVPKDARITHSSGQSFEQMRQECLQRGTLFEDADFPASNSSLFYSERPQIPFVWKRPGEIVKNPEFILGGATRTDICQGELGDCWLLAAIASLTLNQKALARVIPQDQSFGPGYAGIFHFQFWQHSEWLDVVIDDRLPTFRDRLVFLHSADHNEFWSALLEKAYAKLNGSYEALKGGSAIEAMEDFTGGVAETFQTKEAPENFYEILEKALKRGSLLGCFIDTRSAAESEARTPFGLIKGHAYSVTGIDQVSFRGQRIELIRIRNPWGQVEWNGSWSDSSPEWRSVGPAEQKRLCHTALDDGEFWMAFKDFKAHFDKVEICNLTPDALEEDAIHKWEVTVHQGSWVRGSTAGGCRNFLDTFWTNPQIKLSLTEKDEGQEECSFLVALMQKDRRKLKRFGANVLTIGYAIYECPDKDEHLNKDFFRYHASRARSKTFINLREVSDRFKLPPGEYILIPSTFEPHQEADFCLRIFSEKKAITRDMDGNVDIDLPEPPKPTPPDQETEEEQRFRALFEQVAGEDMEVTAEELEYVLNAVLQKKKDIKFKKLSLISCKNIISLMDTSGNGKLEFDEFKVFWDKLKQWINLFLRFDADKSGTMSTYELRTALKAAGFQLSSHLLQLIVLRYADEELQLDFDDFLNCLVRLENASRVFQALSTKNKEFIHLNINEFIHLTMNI
T1 sequence (P04632 1-268 partner): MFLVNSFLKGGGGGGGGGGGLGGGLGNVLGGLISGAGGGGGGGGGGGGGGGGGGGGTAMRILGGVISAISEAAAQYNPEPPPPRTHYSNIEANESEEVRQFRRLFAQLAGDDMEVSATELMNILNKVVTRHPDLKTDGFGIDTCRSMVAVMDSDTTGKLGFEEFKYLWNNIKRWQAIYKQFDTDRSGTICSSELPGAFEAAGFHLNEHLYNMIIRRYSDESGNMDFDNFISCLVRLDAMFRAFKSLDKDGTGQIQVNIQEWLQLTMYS
The test can be described thus: Calpain inhibition continuous fluorescence (FRET) assay, Human Calpain 9/NS1. In kind it is biochemical. The following applies: read-out: Human Calpain 9/NS1 IC50. In outline:
(§1)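 Human calpains 1, 2 and 9 preincubated with inhibitor at 25 °C in 50 mM Tris pH 7.5, 100 mM NaCl, 1 mM DTT; reaction started with 5-FAM/QXL 520 FRET peptide plus CaCl2 for activation. Fluorescence (490/520 nm) followed 10 min; rates from 1-5 min slopes fitted to 4-parameter logistic for IC50.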

The subject of test [1] is Calpain activity in SH-SY5Y cells. The test can be described thus: SH-SY5Y + AMC fluorescence assay (Suc-LLVY-AMC substrate). It is filed as cell-based.
The next test concerns the target T2, Human Calpain 2/NS1 (Homo sapiens, UniProt P17655).
T2 sequence (P17655 1-700): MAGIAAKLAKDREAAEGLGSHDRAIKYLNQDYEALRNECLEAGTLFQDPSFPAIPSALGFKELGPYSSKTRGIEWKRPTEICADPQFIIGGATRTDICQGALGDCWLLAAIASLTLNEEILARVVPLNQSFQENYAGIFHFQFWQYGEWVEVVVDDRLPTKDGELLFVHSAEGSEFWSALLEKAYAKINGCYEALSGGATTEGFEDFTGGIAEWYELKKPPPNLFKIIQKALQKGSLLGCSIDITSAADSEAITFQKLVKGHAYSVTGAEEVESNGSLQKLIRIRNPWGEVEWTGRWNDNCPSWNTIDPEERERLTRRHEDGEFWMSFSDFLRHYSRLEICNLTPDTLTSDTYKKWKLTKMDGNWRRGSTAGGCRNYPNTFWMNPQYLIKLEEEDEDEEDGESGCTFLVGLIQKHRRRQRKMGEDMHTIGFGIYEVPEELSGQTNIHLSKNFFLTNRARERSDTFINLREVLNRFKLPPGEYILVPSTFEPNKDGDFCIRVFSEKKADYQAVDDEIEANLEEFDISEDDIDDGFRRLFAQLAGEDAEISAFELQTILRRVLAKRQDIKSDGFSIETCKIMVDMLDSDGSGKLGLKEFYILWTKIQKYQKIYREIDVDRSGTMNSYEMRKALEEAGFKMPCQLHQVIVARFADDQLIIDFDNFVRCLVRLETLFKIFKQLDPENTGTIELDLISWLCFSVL
T2 sequence (P04632 1-268 partner): T1 sequence (P04632 1-268 partner)
Description: Calpain inhibition continuous fluorescence (FRET) assay, Human Calpain 2/NS1. The following applies: read-out: Human Calpain 2/NS1 IC50. It is filed as biochemical. The essentials:
as §1

A further test has as its target T3, Human Calpain 1/NS1 (Homo sapiens, UniProt P07384).
T3 sequence (P07384 1-714): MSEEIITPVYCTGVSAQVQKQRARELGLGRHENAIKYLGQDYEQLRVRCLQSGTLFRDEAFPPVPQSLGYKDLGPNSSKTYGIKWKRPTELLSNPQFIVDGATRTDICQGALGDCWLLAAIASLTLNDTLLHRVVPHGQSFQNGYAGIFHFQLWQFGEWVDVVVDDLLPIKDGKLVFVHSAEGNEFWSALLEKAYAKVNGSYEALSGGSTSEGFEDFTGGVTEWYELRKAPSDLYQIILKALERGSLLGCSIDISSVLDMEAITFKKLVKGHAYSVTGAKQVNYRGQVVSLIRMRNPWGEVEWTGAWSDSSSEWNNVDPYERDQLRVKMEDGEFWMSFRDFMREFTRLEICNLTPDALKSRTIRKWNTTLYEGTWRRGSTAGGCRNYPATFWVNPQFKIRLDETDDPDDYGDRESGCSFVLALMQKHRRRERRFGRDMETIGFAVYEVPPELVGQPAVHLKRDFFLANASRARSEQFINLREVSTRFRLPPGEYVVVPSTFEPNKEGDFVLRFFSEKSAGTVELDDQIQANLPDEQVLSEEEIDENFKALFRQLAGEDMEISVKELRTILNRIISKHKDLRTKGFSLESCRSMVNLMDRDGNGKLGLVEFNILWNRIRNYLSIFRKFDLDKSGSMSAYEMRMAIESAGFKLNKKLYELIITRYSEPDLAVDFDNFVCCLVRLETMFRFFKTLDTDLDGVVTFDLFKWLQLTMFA
T3 sequence (P04632 1-268 partner): T1 sequence (P04632 1-268 partner)
Description: Calpain inhibition continuous fluorescence (FRET) assay, Human Calpain 1/NS1. In kind it is biochemical. The following applies: read-out: Human Calpain 1/NS1 IC50. In outline:
as §1

Test [2] has as its system Calpain activity in SH-SY5Y cells (SBDP-150). Description: SH-SY5Y Spectrin western blot assay (SBDP-150 breakdown product, A23187-induced). In kind it is cell-based. The following applies: Homo sapiens, read-out: SH-SY5Y Spectrin IC50. In general terms: In western blotting, separated proteins are transferred to a membrane and probed.
Setting [3] is: Column E, read-out: SH-SY5Y + AMC IC50.
Where [4] appears, read: Column D, SH-SY5Y cells, A23187-induced SBDP-150.
Where [5] appears, read: SH-SY5Y cells, A23187-induced SBDP-150, western blot.

Where two headings read alike, the source gives them in different places.

Take `CC(=O)NCc1cccc(-n2nc(C)cc2C(=O)N[C@@H](Cc2ccccc2)C(=O)C(N)=O)c1` [Compound 143, (S)-1-(3-(acetamidomethyl)phenyl)-N-(4-amino-3,4-dioxo-1-phenylbutan-2-yl)-3-methyl-1H-pyrazole-5-carboxamide]: the IC50 at Human Calpain 9/NS1 (Column C) is below 3 µM; in test [1] (setting [3]), below 10 µM; on Human Calpain 2/NS1 (Column B) it was below 3 µM; on Human Calpain 1/NS1 (Column A), below 3 µM; in test [2] (setting [4]), 10 to 25 µM.
As to `Cc1nc(-c2ccccc2F)c(C(=O)NC(C=O)Cc2ccccc2)o1` (stereo not drawn) [Compound 402, 4-(2-fluorophenyl)-2-methyl-N-(1-oxo-3-phenylpropan-2-yl)oxazole-5-carboxamide], the IC50 was below 3 µM on Human Calpain 9/NS1; above 25 µM in test [1] (read-out: SH-SY5Y + AMC IC50); below 3 µM on Human Calpain 2/NS1; below 3 µM on Human Calpain 1/NS1; 10 to 25 µM in test [2] (setting [5]).
For `Cc1ccc(F)c(-c2nn(C(F)F)cc2C(=O)NC(Cc2ccccc2)C(=O)C(N)=O)c1` (stereo not drawn) [Compound 564, N-(4-amino-3,4-dioxo-1-phenylbutan-2-yl)-1-(difluoromethyl)-3-(2-fluoro-5-methylphenyl)-1H-pyrazole-4-carboxamide], the IC50 on Human Calpain 9/NS1 was below 3 µM; in test [1] (read-out: SH-SY5Y + AMC IC50) it was below 10 µM; on Human Calpain 2/NS1 it was below 3 µM; on Human Calpain 1/NS1 it was below 3 µM; in test [2] (setting [5]) it was below 10 µM.
Consider `Cc1cc(C(=O)N[C@@H](Cc2ccccc2)C(=O)C(N)=O)n(-c2cccc(CNC(=O)CCc3ccccc3)c2)n1` [Compound 142, (S)—N-(4-amino-3,4-dioxo-1-phenylbutan-2-yl)-3-methyl-1-(3-((3-phenylpropanamido)methyl)phenyl)-1H-pyrazole-5-carboxamide], for which the IC50 at Human Calpain 9/NS1 (Column C) was below 3 µM; in test [1] (setting [3]), below 10 µM; at Human Calpain 2/NS1 (Column B), below 3 µM; at Human Calpain 1/NS1 (Column A) it was below 3 µM; in test [2] (setting [4]), 10 to 25 µM.
Regarding `Cn1cc(C(=O)NC(Cc2ccccc2)C(=O)C(N)=O)c(-c2ccccc2C(F)(F)F)n1` (stereo not drawn) [Compound 513, N-(4-amino-3,4-dioxo-1-phenylbutan-2-yl)-1-methyl-3-(2-(trifluoromethyl)phenyl)-1H-pyrazole-4-carboxamide], the IC50 at Human Calpain 9/NS1 is 3 to 10 µM; in test [1] (read-out: SH-SY5Y + AMC IC50) it was below 10 µM; on Human Calpain 2/NS1 it was 3 to 10 µM; on Human Calpain 1/NS1 it was 3 to 10 µM; in test [2] (setting [5]), above 25 µM.
Regarding `NC(=O)C(=O)C(Cc1ccccc1)NC(=O)c1nsnc1-c1ccccn1` (stereo not drawn) [Compound 373, N-(4-amino-3,4-dioxo-1-phenylbutan-2-yl)-4-(pyridin-2-yl)-1,2,5-thiadiazole-3-carboxamide], the IC50 at Human Calpain 9/NS1 was below 3 µM; in test [1] (read-out: SH-SY5Y + AMC IC50), below 10 µM; on Human Calpain 2/NS1, below 3 µM; on Human Calpain 1/NS1, below 3 µM; in test [2] (setting [5]) it was below 10 µM.
With `Cc1csc(-c2nn(C)cc2C(=O)NC(Cc2ccccc2)C(=O)C(N)=O)c1` (stereo not drawn) [Compound 504, N-(4-amino-3,4-dioxo-1-phenylbutan-2-yl)-1-methyl-3-(4-methylthiophen-2-yl)-1H-pyrazole-4-carboxamide], the IC50 is below 3 µM at Human Calpain 9/NS1; above 25 µM in test [1] (read-out: SH-SY5Y + AMC IC50); below 3 µM at Human Calpain 2/NS1; below 3 µM at Human Calpain 1/NS1; above 25 µM in test [2] (setting [5]).
With `Cc1cccc(-c2nn(C)cc2C(=O)NC(Cc2ccccc2)C(=O)C(N)=O)c1F` (stereo not drawn) [Compound 517, N-(4-amino-3,4-dioxo-1-phenylbutan-2-yl)-3-(2-fluoro-3-methylphenyl)-1-methyl-1H-pyrazole-4-carboxamide], the IC50 at Human Calpain 9/NS1 is below 3 µM; in test [1] (read-out: SH-SY5Y + AMC IC50), 10 to 25 µM; on Human Calpain 2/NS1 it was below 3 µM; at Human Calpain 1/NS1 it was below 3 µM; in test [2] (setting [5]), 10 to 25 µM.
Turning to `Cn1cc(C(=O)NC(Cc2ccccc2)C(=O)C(N)=O)c(-c2cc(F)ccc2F)n1` (stereo not drawn) [Compound 518, N-(4-amino-3,4-dioxo-1-phenylbutan-2-yl)-3-(2,5-difluorophenyl)-1-methyl-1H-pyrazole-4-carboxamide], the IC50 on Human Calpain 9/NS1 is below 3 µM; in test [1] (read-out: SH-SY5Y + AMC IC50) it was below 10 µM; on Human Calpain 2/NS1, below 3 µM; at Human Calpain 1/NS1, below 3 µM; in test [2] (setting [5]), 10 to 25 µM.
Turning to `COC(=O)NCc1ccc(-n2nc(C)cc2C(=O)N[C@@H](Cc2ccccc2)C(=O)C(N)=O)cc1` [Compound 158, Methyl (S)-(4-(5-((4-amino-3,4-dioxo-1-phenylbutan-2-yl)carbamoyl)-3-methyl-1H-pyrazol-1-yl)benzyl)carbamate], the IC50 is below 3 µM at Human Calpain 9/NS1 (Column C); above 25 µM in test [1] (setting [3]); below 3 µM on Human Calpain 2/NS1 (Column B); below 3 µM at Human Calpain 1/NS1 (Column A); 10 to 25 µM in test [2] (setting [4]).
Consider `Cn1cc(C(=O)NC(Cc2ccccc2)C(=O)C(N)=O)c(-c2cccc(C(F)(F)F)n2)n1` (stereo not drawn) [Compound 198, N-(4-amino-3,4-dioxo-1-phenylbutan-2-yl)-1-methyl-3-(6-(trifluoromethyl)pyridin-2-yl)-1H-pyrazole-4-carboxamide], for which the IC50 at Human Calpain 9/NS1 (Column C) was below 3 µM; in test [1] (read-out: SH-SY5Y + AMC IC50, Column E), above 25 µM; at Human Calpain 2/NS1 (Column B), below 3 µM; at Human Calpain 1/NS1 (Column A) it was below 3 µM; in test [2] (SH-SY5Y), above 25 µM.
For `CCc1cccc(-c2nn(C)cc2C(=O)N[C@@H](Cc2ccccc2)C(=O)C(N)=O)c1` [Compound 182, (S)—N-(4-amino-3,4-dioxo-1-phenylbutan-2-yl)-3-(3-ethylphenyl)-1-methyl-1H-pyrazole-4-carboxamide], the IC50 on Human Calpain 9/NS1 (Column C) was below 3 µM; in test [1] (setting [3]), below 10 µM; at Human Calpain 2/NS1 (Column B) it was below 3 µM; at Human Calpain 1/NS1 (Column A) it was below 3 µM; in test [2] (setting [4]), 10 to 25 µM.
